# “Also recorded” adds a separate entry of the source.
# Tested on: influx of neutrophils to the lung in LPS-challenged rats
# Experiment: Rat LPS neutrophilia model
# Assay type: in vivo
# Details: LPS aerosol, intratracheal dosing, in at least one of the range of conditions tested, significance p<0.05
# Method: Rat LPS Neutrophilia Model
# The effect of compounds on the influx of neutrophils to the lung in LPS-challenged rats is evaluated as follows. The test compound is suspended in one of the following solutions: 0.5% tween 80/PBS, 0.5% tween 80/saline, 10% EtOH/saline (with pH adjusted to 2.0, or 8.0 with HCl, or unadjusted), Saline @pH 2.0, 6.5 or 8.0, 0.5% Tragacanth, 1% DMSO/20% Encapsin/Saline, or acidified 5% Tragacanth. The suspension process may be aided by the use of a glass homogenizer. For intratracheal administration, the animals are anesthetized with inhaled isoflurane and placed in a supine position, the trachea is intubated with a steel gavage needle (1.5 inch, 22 gauge, small ball) or a Penn-Century Microsprayer Aerosolizer (model IA-1B) and 200 ul of dosing solution is delivered. The animals are visually monitored during the recovery process, which typically occurs within two minutes. It is noted that the test compounds may be alternatively administered via the microsprayer in a dry powder blend with a suitable excipient, such as lactose.
# Rats treated with compound or vehicle (15 min-24 hours pretreatment) are exposed to an LPS aerosol (100 ug/ml) for 15 min. Four hours later the rats are euthanized with pentobarbital (100 mg/kg, i.p.) and the airways are lavaged with 5 washes of 5 ml of phosphate buffered saline. The harvested cells are stained (Diffquick) and counted to determine total and differential cell data. […] Inhibition of neutrophil levels relative to no compound controls is calculated based on the differential counts.
# The data is obtained as % inhibition using a particular concentration and pretreat time.
row,SMILES,inhibition of neutrophilia
1,"CCN(CC)CCCNc1nc(-c2cc(C(=O)NCCF)ccc2C)c2ccc(=O)n(-c3c(F)cccc3F)c2n1 [Example 133, 3-[2-{[3-(diethylamino)propyl]amino}-8-(2,6-difluorophenyl)-7-oxo-7,8-dihydropyrido[2,3-d]pyrimidin-4-yl]-N-(2-fluoroethyl)-4-methylbenzamidetrifluoroacetate]",statistically significant inhibition
2,"CNCCNc1nc(-c2cc(C(=O)NCc3ccccc3)ccc2C)c2ccc(=O)n(-c3c(F)cccc3F)c2n1 [Example 59, 3-(8-(2,6-difluorophenyl)-2-{[2-(methylamino)ethyl]amino}-7-oxo-7,8-dihydropyrido[2,3-d]pyrimidin-4-yl)-4-methyl-N-(phenylmethyl)benzamide]",statistically significant inhibition
3,"CCN(CC)CCCNc1nc(-c2cc(C(=O)NC)ccc2C)c2ccc(=O)n(-c3c(F)cccc3F)c2n1 [Example 119, 3-[2-{[3-(diethylamino)propyl]amino}-8-(2,6-difluorophenyl)-7-oxo-7,8-dihydropyrido[2,3-d]pyrimidin-4-yl]-N,4-dimethylbenzamide]",statistically significant inhibition
4,"CCN(CC)CCCNc1nc(-c2cc(C(=O)NC(C)C)ccc2C)c2ccc(=O)n(-c3c(F)cccc3F)c2n1 [118(b), 3-[2-{[3-(diethylamino)propyl]amino}-8-(2,6-difluorophenyl)-7-oxo-7,8-dihydropyrido[2,3-d]pyrimidin-4-yl]-4-methyl-N-(1-methylethyl)benzamide]",statistically nonsignificant inhibition
5,"Cc1ccc(C(=O)NC2CCCC2)cc1-c1nc(N2CCC(N3CCC(C)CC3)CC2)nc2c1ccc(=O)n2-c1c(F)cccc1F [Example 169, N-cyclopentyl-3-[8-(2,6-difluorophenyl)-2-(4-methyl-1,4′-bipiperidin-1′-yl)-7-oxo-7,8-dihydropyrido[2,3-d]pyrimidin-4-yl]-4-methylbenzamide]",statistically nonsignificant inhibition
6,"CCN(CC)CCCNc1nc(-c2cc(C(=O)NC3CCCC3)ccc2C)c2ccc(=O)n(-c3c(F)cccc3F)c2n1 [Example 125, N-cyclopentyl-3-[2-{[3-(diethylamino)propyl]amino}-8-(2,6-difluorophenyl)-7-oxo-7,8-dihydropyrido[2,3-d]pyrimidin-4-yl]-4-methylbenzamide]",statistically nonsignificant inhibition
7,"CCN(CC)CCCNc1nc(-c2cc(C(=O)N(C)C)ccc2C)c2ccc(=O)n(-c3c(F)cccc3F)c2n1 [Example 120, 3-[2-{[3-(diethylamino)propyl]amino}-8-(2,6-difluorophenyl)-7-oxo-7,8-dihydropyrido[2,3-d]pyrimidin-4-yl]-N,N,4-trimethylbenzamide]",statistically nonsignificant inhibition; also recorded: inactive
8,"Cc1ccc(C(=O)NC(C)C)cc1-c1nc(N(C)CCCN(C)C)nc2c1ccc(=O)n2-c1c(F)cccc1F [Example 34, 3-{8-(2,6-difluorophenyl)-2-[[3-(dimethylamino)propyl](methyl)amino]-7-oxo-7,8-dihydropyrido[2,3-d]pyrimidin-4-yl}-4-methyl-N-(1-methylethyl)benzamide]",statistically significant inhibition
9,"Cc1ccc(C(=O)NC2CC2)cc1-c1nc(N2CCC(N3CCC(C)CC3)CC2)nc2c1ccc(=O)n2-c1c(F)cccc1F [Example 178, N-cyclopropyl-3-[8-(2,6-difluorophenyl)-2-(4-methyl-1,4′-bipiperidin-1′-yl)-7-oxo-7,8-dihydropyrido[2,3-d]pyrimidin-4-yl]-4-methylbenzamide]",statistically nonsignificant inhibition
10,"CCN(CC)CCCNc1nc(-c2cc(C(=O)NCC(F)(F)F)ccc2C)c2ccc(=O)n(-c3c(F)cccc3F)c2n1 [Example 128, 3-[2-{[3-(diethylamino)propyl]amino}-8-(2,6-difluorophenyl)-7-oxo-7,8-dihydropyrido[2,3-d]pyrimidin-4-yl]-4-methyl-N-(2,2,2-trifluoroethyl)benzamide]",inactive
11,"CNCCNc1nc(-c2cc(C(=O)Nc3ccc(F)cc3)ccc2C)c2ccc(=O)n(-c3c(F)cccc3F)c2n1 [Example 60, 3-(8-(2,6-difluorophenyl)-2-{[2-(methylamino)ethyl]amino}-7-oxo-7,8-dihydropyrido[2,3-d]pyrimidin-4-yl)-N-(4-fluorophenyl)-4-methylbenzamide]",statistically significant inhibition
12,"Cc1ccc(C(=O)Nc2ccc(F)cc2)cc1-c1nc(NCc2ncc[nH]2)nc2c1ccc(=O)n2-c1c(F)cccc1F [Example 78, 3-{8-(2,6-difluorophenyl)-2-[(1H-imidazol-2-ylmethyl)amino]-7-oxo-7,8-dihydropyrido[2,3-d]pyrimidin-4-yl}-N-(4-fluorophenyl)-4-methylbenzamide]",statistically significant inhibition
13,"CNCCNc1nc(-c2cc(C(=O)NC(C)C)ccc2C)c2ccc(=O)n(-c3c(F)cccc3F)c2n1 [Example 57, 3-(8-(2,6-difluorophenyl)-2-{[2-(methylamino)ethyl]amino}-7-oxo-7,8-dihydropyrido[2,3-d]pyrimidin-4-yl)-4-methyl-N-(1-methylethyl)benzamide]",statistically significant inhibition
14,"CCNC(=O)c1ccc(C)c(-c2nc(N3CCC(N4CCC(C)CC4)CC3)nc3c2ccc(=O)n3-c2c(F)cccc2F)c1 [Example 173, 3-[8-(2,6-difluorophenyl)-2-(4-methyl-1,4′-bipiperidin-1′-yl)-7-oxo-7,8-dihydropyrido[2,3-d]pyrimidin-4-yl]-N-ethyl-4-methylbenzamide]",statistically significant inhibition
15,"CCN(CC)CCCNc1nc(-c2cc(C(=O)N[C@@H](C)c3ccccc3)ccc2C)c2ccc(=O)n(-c3c(F)cccc3F)c2n1 [Example 149, 3-[2-{[3-(diethylamino)propyl]amino}-8-(2,6-difluorophenyl)-7-oxo-7,8-dihydropyrido[2,3-d]pyrimidin-4-yl]-4-methyl-N-[(1S)-1-phenylethyl]benzamide]",inactive
16,"CCN(CC)CCCNc1nc(-c2cc(C(=O)NCC(C)C)ccc2C)c2ccc(=O)n(-c3c(F)cccc3F)c2n1 [Example 124, 3-[2-{[3-(diethylamino)propyl]amino}-8-(2,6-difluorophenyl)-7-oxo-7,8-dihydropyrido[2,3-d]pyrimidin-4-yl]-4-methyl-N-(2-methylpropyl)benzamide]",statistically significant inhibition
17,"CCN(CC)CCCNc1nc(-c2cc(C(=O)NC3CC3)cc(F)c2C)c2ccc(=O)n(-c3c(F)cccc3F)c2n1 [Example 185, N-cyclopropyl-3-[2-{[3-(diethylamino)propyl]amino}-8-(2,6-difluorophenyl)-7-oxo-7,8-dihydropyrido[2,3-d]pyrimidin-4-yl]-5-fluoro-4-methylbenzamide]",statistically nonsignificant inhibition
18,"CCC(C)NC(=O)c1ccc(C)c(-c2nc(NCCCN(CC)CC)nc3c2ccc(=O)n3-c2c(F)cccc2F)c1 (stereo not shown) [Example 162, 3-[2-{[3-(diethylamino)propyl]amino}-8-(2,6-difluorophenyl)-7-oxo-7,8-dihydropyrido[2,3-d]pyrimidin-4-yl]-4-methyl-N-(1-methylpropyl)benzamide]",statistically nonsignificant inhibition
19,"Cc1ccc(C(=O)Nc2ccc(F)cc2)cc1-c1nc(N2CCC(N3CCC(C)CC3)CC2)nc2c1ccc(=O)n2-c1c(F)cccc1F [Example 174, 3-[8-(2,6-difluorophenyl)-2-(4-methyl-1,4′-bipiperidin-1′-yl)-7-oxo-7,8-dihydropyrido[2,3-d]pyrimidin-4-yl]-N-(4-fluorophenyl)-4-methylbenzamide]",inactive
20,"Cc1ccc(C(=O)NC2CCCC2)cc1-c1nc(N2CCC(N)CC2)nc2c1ccc(=O)n2-c1c(F)cccc1F [Example 70, 3-[2-(4-amino-1-piperidinyl)-8-(2,6-difluorophenyl)-7-oxo-7,8-dihydropyrido[2,3-d]pyrimidin-4-yl]-N-cyclopentyl-4-methylbenzamide]",statistically nonsignificant inhibition
21,"CCN(CC)CCCNc1nc(-c2cc(C(=O)NCCOC)ccc2C)c2ccc(=O)n(-c3c(F)cccc3F)c2n1 [Example 134, 3-[2-{[3-(diethylamino)propyl]amino}-8-(2,6-difluorophenyl)-7-oxo-7,8-dihydropyrido[2,3-d]pyrimidin-4-yl]-4-methyl-N-[2-(methyloxy)ethyl]benzamidetrifluoroacetate]",statistically nonsignificant inhibition
22,"Cc1ccc(C(=O)NCc2ccccc2)cc1-c1nc(N2CCC(N)CC2)nc2c1ccc(=O)n2-c1c(F)cccc1F [Example 71, 3-[2-(4-amino-1-piperidinyl)-8-(2,6-difluorophenyl)-7-oxo-7,8-dihydropyrido[2,3-d]pyrimidin-4-yl]-4-methyl-N-(phenylmethyl)benzamide]",statistically nonsignificant inhibition
